Experimental data published in patent US6673795B2, “Pyrimidine, pyrazine and triazane derivatives” (Hoffmann-La Roche Inc., priority 2001, dated 2004).

Legend:
rat mGluR1a receptor = target: T1, rat mGluR1a receptor (Rattus norvegicus, UniProt P23385); assay: Binding assay for the characterization of mGluR 1 antagonistic properties (tritiated radioligand displacement); details: membranes of HEK 293 cells transiently transfected with rat mGluR1a; tritiated 1-ethyl-2-methyl-6-oxo-4-(1,1,2-tritritio-1,2,4,5-tetrahydro-benzo[d]azepin-3-yl)-1,6-dihydro-pyrimidine-5-carbonitrile at 3 nM; 1 hour at room temperature
T1 construct: expressed in transfected cells; host or cells: HEK 293 cells, transient transfection; membrane preparation
T1 sequence (P23385 19-1199): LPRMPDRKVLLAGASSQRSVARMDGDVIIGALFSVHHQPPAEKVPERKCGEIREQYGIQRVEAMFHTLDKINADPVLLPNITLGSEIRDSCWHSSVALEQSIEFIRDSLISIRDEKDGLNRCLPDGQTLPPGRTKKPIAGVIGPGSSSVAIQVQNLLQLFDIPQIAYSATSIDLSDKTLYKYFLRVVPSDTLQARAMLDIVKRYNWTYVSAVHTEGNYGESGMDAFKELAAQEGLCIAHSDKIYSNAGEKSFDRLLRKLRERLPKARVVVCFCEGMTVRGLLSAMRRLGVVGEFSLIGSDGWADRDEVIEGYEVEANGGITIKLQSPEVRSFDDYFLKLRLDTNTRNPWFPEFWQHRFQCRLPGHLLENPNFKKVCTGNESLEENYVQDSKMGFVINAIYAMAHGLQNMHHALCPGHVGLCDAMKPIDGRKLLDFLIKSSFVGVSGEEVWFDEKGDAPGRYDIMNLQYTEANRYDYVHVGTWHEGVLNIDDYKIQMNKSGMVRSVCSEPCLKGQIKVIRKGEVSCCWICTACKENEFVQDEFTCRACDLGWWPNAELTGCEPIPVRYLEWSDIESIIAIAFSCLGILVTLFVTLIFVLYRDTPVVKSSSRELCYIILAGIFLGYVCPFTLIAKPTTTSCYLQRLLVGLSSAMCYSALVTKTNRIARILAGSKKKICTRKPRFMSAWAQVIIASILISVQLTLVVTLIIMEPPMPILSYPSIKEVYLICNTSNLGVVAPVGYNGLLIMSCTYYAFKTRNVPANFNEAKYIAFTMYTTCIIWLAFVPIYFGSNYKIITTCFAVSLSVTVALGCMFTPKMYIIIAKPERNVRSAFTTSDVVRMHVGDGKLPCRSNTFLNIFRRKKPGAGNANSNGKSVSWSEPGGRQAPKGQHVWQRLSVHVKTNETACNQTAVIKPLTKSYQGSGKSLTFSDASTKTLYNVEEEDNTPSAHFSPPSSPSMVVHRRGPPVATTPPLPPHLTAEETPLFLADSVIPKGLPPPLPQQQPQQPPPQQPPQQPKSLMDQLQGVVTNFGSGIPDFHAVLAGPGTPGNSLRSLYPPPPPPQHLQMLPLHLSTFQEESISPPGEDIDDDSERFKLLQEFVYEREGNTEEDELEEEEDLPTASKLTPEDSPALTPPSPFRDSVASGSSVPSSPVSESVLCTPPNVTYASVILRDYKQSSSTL
Method: Binding Assay for the Characterization of mGluR 1 Antagonistic Properties
Binding assay with tritiated 1-ethyl-2-methyl-6-oxo-4-(1,1,2-tritritio-1,2,4,5-tetrahydro-benzo[d]azepin-3-yl)-1,6-dihydro-pyrimidine-5-carbonitrile: HEK 293 cells were transiently transfected with the rat mGluR^1 a receptor. The cells were collected and washed 3 times with PBS. The cell pellets were frozen at −80° C. Membranes were prepared from HEK 293 cells transfected with the rat mGluR^1 a receptor and used in the binding experiments at 10 μg proteins per assay after resuspension in a HEPES NaOH 20 mM, pH=7.4 binding buffer. 1-Ethyl-2-methyl-6-oxo-4-(1,1,2-tritritio-1,2,4,5-tetrahydro-benzo [d]azepin-3-yl)-1,6-dihydro-pyrimidine-5-carbonitrile (S.A 33.4 Ci/mmol) was used at 3 nM final concentration. The incubation with variable concentrations of potential inhibitors was performed for 1 hour at room temperature, the incubate was then filtered onto GF/B glass fiber filter preincubated 1 hour in PEI 0,1% and washed 3 times with 1 ml of cold binding buffer. The radioactivity retained on the unifilter 96 was counted using a Topcount β counter. After correction for non specific binding the data were normalized and the IC50 value calculated using a 4 parameters logistic equation which was fitted to the inhibition curve.

Row | Structure (SMILES) | IC50 (rat mGluR1a receptor) | melting point
1 | Cc1nc(N2CCC(c3ccc(F)cc3)CC2)c([N+](=O)[O-])c(=O)n1CCCCO [Example 18, 6-[4-(4-Fluoro-phenyl)-piperidin-1-yl]-3-(4-hydroxy-butyl)-2-methyl-5-nitro-3H-pyrimidin-4-one] | 280 nM | 154 to 156 °C
2 | Cc1nc(N2CCN(c3ccc(F)cc3)CC2)c([N+](=O)[O-])c(=O)[nH]1 [Example 1, 6-[4-(4-Fluoro-phenyl)-piperazin-1-yl]-2-methyl-5-nitro-3H-pyrimidin-4-one] | 810 nM | > 250 °C (dec.)
3 | CCOc1nc(C)nc(N2CCN(c3ccc(F)cc3)CC2)c1[N+](=O)[O-] [Example 10-2, 4-ethoxy-6-[4-(4-fluoro-phenyl)-piperazin-1-yl]-2-methyl-5-nitro-pyrimidine] | 180 nM | 116 to 119 °C
4 | N#Cc1ncc(NCCO)nc1N1CCN(c2ccc(F)cc2)CC1 [Example 83, 4-(4-Fluoro-phenyl)-6′-(2-hydroxy-ethylamino)-3,4,5,6-tetrahydro-2H-[1,2′]bipyrazinyl-3′-carbonitrile] | 1000 nM | 149 to 151 °C

The next compounds have a lower IC50 (rat mGluR1a receptor) than those just listed; values first:

Row | IC50 (rat mGluR1a receptor) | melting point | Structure (SMILES)
5 | 17 nM | 99 to 101 °C | CCc1nc(C#N)c(N2CCN(c3ccccc3)CC2)nc1C [Example 75-1, 5′-ethyl-6′-methyl-4-phenyl-3,4,5,6-tetrahydro-2H-[1,2′]bipyrazinyl-3′-carbonitrile]
6 | 63 nM | 210 to 213 °C | Cc1nc(N2CCC(c3ccccc3)CC2)c([N+](=O)[O-])c(=O)[nH]1 [Example 5, 2-Methyl-5-nitro-6-(4-phenyl-piperidin-1-yl)-3H-pyrimidin-4-one]
